Results as given in ChEMBL document CHEMBL3228010, “Potential antitumor agents. 29. Quantitative structure-activity relationships for the antileukemic bisquaternary ammonium heterocycles” (J Med Chem, 1979).

Tests used:
[1] = Displacement of ethidium from poly[d(A-T)]-poly[d(A-T)] DNA by fluorimetric method
[2] = Displacement of ethidium from poly[d(G-C)]-poly[d(G-C)] DNA (unknown origin) by fluorimetric method
[3] = test system: Mus musculus; assay: Toxicity in ip dosed C3H X DBA2 F1 hybrid mouse […] with mouse L1210 cells on day 0 and dosed once daily on days 1 to 5 measured after 50 days; assay type: organism-based; conditions: in vivo, 1200 h
[4] = Lipophilic-hydrophilic balance, Rm of the compound by partition chromatography; assay type: physicochemical
[5] = organism: Bos taurus; assay: Displacement of ethidium from calf thymus DNA by fluorimetric method
[6] = Displacement of ethidium from poly[d(A)]-poly[d(T)] DNA (unknown origin) by fluorimetric method
[7] = test system: L1210; assay: Antitumor activity against mouse L1210 cells […] in ip dosed C3H X DBA2 F1 hybrid mouse on day 0 and dosed once daily on days 1 to 5 assessed as increase in life span relative to control; assay type: functional
[8] = test system: L1210; assay: Antitumor activity against mouse L1210 cells […] in ip dosed C3H X DBA2 F1 hybrid mouse on day 0 and dosed at LD10 level once daily on days 1 to 5 assessed as increase in life span relative to control; assay type: functional

SMILES | C50 [1] [µM] | C50 [2] [µM] | LD10 [3] [mg/kg] | Rm [4] | C50 [5] [µM] | C50 [6] [µM] | D40 [7] [mg/kg] | log(ILSmax) [8]
CCCC[n+]1cccc(NC(=O)c2ccc(NC(=O)c3ccc(C(=O)Nc4ccc(C(=O)Nc5ccc[n+](CCCC)c5)cc4)cc3)cc2)c1.Cc1ccc(S(=O)(=O)[O-])cc1.Cc1ccc(S(=O)(=O)[O-])cc1 | 0.41 | 0.93 | 58 | 0.51 | 0.46 | 0.14 | 30 | 1.76
C[n+]1ccc(Nc2ccc(NC(=O)c3ccc(Nc4cc[n+](C)c5ccccc45)cc3)cc2)cc1.[Br-].[Br-] | 0.16 | 3 | 13 | 0.29 | 1.4 | 0.036 | 2 | 2.23
C[n+]1ccc(Nc2ccc(NC(=O)c3ccc(Nc4cc[n+](C)c5ccccc45)cc3N)cc2N)cc1.[I-].[I-] | 0.79 | 3.17 | 18 | 0.08 | 1.76 | 0.12 | 15 | 1.78
CCC[n+]1cccc(NC(=O)c2ccc(NC(=O)c3ccc(C(=O)Nc4ccc(C(=O)Nc5ccc[n+](CCC)c5)cc4)cc3)cc2)c1.Cc1ccc(S(=O)(=O)[O-])cc1.Cc1ccc(S(=O)(=O)[O-])cc1 | 0.39 | 0.9 | 27 | 0.13 | 0.44 | 0.12 | 12.9 | 2.06
CC[n+]1cccc(NC(=O)c2ccc(NC(=O)c3ccc(C(=O)Nc4ccc(C(=O)Nc5ccc[n+](CC)c5)cc4)cc3)cc2)c1.Cc1ccc(S(=O)(=O)[O-])cc1.Cc1ccc(S(=O)(=O)[O-])cc1 | 0.4 | 0.9 | 33 | -0.32 | 0.48 | 0.11 | 9.8 | 2.24
C[n+]1ccc(Nc2ccc(NC(=O)c3ccc(Nc4cc[n+](C)c5ccc(N)cc45)cc3N)cc2)cc1.[I-].[I-] | 0.1 | 1.1 | 20 | 0.01 | 0.49 | 0.039 | 2.9 | 2.45
C[n+]1ccc(Nc2ccc(NC(=O)c3ccc(C(=O)Nc4ccc(Nc5cc[n+](C)cc5)cc4)cc3)cc2)cc1.Cc1ccc(S(=O)(=O)[O-])cc1.Cc1ccc(S(=O)(=O)[O-])cc1 | 0.14 | 1.8 | 3.1 | 0.07 | 1.3 | 0.043 | 0.3 | 2.33
C[n+]1ccc(Nc2ccc(NC(=O)c3ccc(Nc4cc[n+](C)c5ccccc45)cc3)cc2N)cc1.[I-].[I-] | 0.43 | 4.76 | 8 | 0.24 | 2.25 | 0.052 | 2.8 | 1.85
COc1cc(NC(=O)c2ccc(C(=O)Nc3ccc(C(=O)Nc4ccc[n+](C)c4)c(OC)c3)cc2)ccc1C(=O)Nc1ccc[n+](C)c1.Cc1ccc(S(=O)(=O)[O-])cc1.Cc1ccc(S(=O)(=O)[O-])cc1 | 0.3 | 0.35 | 41 | 0.15 | 0.4 | 0.18 | 15 | 1.78
C/C(=N\NC(=N)N)c1ccc(C(=O)Nc2ccc(Nc3cc[n+](C)c4ccc(N)cc34)cc2)cc1.Cc1ccc(S(=O)(=O)O)cc1.Cc1ccc(S(=O)(=O)[O-])cc1 | 0.12 | 0.52 | 40 | -0.1 | 0.4 | 0.057 | 2.6 | 2.37
C[n+]1ccc(Nc2ccc(NC(=O)c3ccc(Nc4cc[n+](C)c5ccc(N)cc45)cc3)cc2N)cc1.[I-].[I-] | 0.23 | 1.3 | 3 | -0.03 | 0.71 | 0.067 | 0.7 | 2.18
C[n+]1ccc(Nc2ccc(NC(=O)c3ccc(Nc4cc[n+](C)c5c(Cl)cccc45)cc3)cc2)cc1.Cc1ccc(S(=O)(=O)[O-])cc1.Cc1ccc(S(=O)(=O)[O-])cc1 | 0.29 | 1.4 | 55 | 0.51 | 1.1 | 0.038 | 50 | 1.7
